Measured values taken from ChEMBL document CHEMBL2417406, “Exploring the orthosteric binding site of the γ-aminobutyric acid type A receptor using 4-(Piperidin-4-yl)-1-hydroxypyrazoles 3- or 5-imidazolyl substituted: design, synthesis, and pharmacological evaluation” (J Med Chem, 2013).

What was measured:
[1] = Displacement of [3H] muscimol from rat GABA A receptor
[2] = molecular target: T1, GABA-A receptor; alpha-1/beta-2/gamma-2 (Homo sapiens, UniProt P14867+P18507+P47870); assay: Antagonist activity at human alpha1beta2gamma2S GABA-A receptor expressed in tsA201 cells assessed as inhibition of GABA-induced effect after 30 mins by FLIPR membrane potential blue assay; type: cell-based
T1 sequence (P14867 whole entry): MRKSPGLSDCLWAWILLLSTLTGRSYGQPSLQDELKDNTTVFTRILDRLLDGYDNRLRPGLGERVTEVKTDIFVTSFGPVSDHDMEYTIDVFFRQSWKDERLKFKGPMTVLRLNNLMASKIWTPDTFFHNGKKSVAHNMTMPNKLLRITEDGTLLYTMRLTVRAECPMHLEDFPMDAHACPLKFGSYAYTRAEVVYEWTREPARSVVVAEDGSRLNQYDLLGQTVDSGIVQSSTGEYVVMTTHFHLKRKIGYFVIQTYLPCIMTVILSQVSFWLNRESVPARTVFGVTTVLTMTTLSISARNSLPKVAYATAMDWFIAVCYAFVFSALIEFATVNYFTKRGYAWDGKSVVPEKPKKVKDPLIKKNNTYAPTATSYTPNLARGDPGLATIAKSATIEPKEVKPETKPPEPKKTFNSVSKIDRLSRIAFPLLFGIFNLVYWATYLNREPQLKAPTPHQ
T1 sequence (P47870 whole entry): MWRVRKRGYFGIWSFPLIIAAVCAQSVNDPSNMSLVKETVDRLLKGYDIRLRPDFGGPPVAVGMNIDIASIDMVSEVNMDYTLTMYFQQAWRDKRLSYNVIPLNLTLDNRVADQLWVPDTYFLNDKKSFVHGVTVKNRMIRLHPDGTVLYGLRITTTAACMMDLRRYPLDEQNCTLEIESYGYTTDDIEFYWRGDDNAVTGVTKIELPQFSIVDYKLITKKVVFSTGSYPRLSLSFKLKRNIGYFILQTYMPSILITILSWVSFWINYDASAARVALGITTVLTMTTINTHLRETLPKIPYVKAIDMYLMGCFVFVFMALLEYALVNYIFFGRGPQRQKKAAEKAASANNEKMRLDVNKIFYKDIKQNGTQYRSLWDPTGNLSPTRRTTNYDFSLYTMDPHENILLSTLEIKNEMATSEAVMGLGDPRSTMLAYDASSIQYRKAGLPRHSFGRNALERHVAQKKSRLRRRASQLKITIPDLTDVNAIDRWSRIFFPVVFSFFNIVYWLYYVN
T1 sequence (P18507 whole entry): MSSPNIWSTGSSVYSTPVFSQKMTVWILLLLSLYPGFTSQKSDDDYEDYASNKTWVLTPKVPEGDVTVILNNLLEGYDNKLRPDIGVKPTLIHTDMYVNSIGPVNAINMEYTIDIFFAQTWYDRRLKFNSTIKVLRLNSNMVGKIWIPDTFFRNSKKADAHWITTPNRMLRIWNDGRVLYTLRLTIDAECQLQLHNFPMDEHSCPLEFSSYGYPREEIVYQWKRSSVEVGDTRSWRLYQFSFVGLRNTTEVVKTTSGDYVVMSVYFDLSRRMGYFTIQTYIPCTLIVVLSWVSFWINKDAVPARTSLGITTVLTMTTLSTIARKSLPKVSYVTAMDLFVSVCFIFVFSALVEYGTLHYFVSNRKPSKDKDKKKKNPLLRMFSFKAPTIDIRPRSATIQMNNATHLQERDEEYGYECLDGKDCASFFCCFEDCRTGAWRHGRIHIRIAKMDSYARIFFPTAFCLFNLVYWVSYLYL

Compound	Ki [1] [nM]	pKi [1]	IC50 [2] [nM]
On1ncc(C2CCNCC2)c1-c1cn(Cc2ccccc2)c(-c2ccccc2)n1	230	6.64	780
On1ncc(C2CCNCC2)c1-c1c[nH]c(-c2ccccc2)n1	14	7.86	690
COc1ccc(-c2ccc(=N)n(CCCC(=O)O)n2)cc1 [GABAZINE]	[…]	–	240
On1cc(C2CCNCC2)c(-c2cn(Cc3ccccc3)c(Cl)n2)n1	740	6.14	–
On1cc(C2CCNCC2)c(-c2cccc(-c3ccccc3)c2)n1	30	–	–
On1ncc(C2CCNCC2)c1-c1c[nH]cn1	7500	5.14	–
On1cc(C2CCNCC2)c(-c2cn(Cc3ccccc3)cn2)n1	750	6.13	–
On1cc(C2CCNCC2)c(-c2c[nH]cn2)n1	5100	5.31	30000
On1cc(C2CCNCC2)cn1	10000	–	> 500000
On1cc(C2CCNCC2)c(-c2cn(Cc3ccccc3)c(-c3ccccc3)n2)n1	280	6.57	210
On1cc(C2CCNCC2)c(-c2c[nH]c(-c3ccccc3)n2)n1	2500	5.61	9700
On1ncc(C2CCNCC2)c1-c1cn(Cc2ccccc2)c(Cl)n1	830	6.09	–
